Source: ChEMBL document CHEMBL1125407, “Noncataleptogenic, centrally acting dopamine D-2 and serotonin 5-HT2 antagonists within a series of 3-substituted 1-(4-fluorophenyl)-1H-indoles” (J Med Chem, 1992)

Legend:
[1] = biological target: T1, Serotonin 2 (5-HT2) receptor (Rattus norvegicus, UniProt P30994+P08909+P14842); assay: Inhibition of [3H]ketanserin binding to rat 5-hydroxytryptamine 2 receptors.; format: protein assay
D(2) dopamine receptor = D(2) dopamine receptor (Rattus norvegicus, UniProt P61169); assay: Tested for the inhibition of [3H]spiperone binding to dopamine D2 receptor
Chain of D(2) dopamine receptor (P61169 whole entry): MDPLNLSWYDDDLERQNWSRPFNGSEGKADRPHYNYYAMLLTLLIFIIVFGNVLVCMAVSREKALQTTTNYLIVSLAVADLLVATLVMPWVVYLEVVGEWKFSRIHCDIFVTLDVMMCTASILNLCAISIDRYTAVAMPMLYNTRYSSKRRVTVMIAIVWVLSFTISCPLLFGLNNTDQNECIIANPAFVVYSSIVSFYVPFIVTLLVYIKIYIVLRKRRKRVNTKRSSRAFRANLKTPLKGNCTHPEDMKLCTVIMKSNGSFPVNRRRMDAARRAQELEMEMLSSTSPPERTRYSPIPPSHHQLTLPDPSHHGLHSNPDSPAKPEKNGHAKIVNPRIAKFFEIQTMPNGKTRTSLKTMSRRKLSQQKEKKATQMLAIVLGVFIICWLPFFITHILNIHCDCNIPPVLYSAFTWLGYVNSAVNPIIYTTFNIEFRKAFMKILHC

[2] = biological target: D(2) dopamine receptor (Rattus norvegicus) (UniProt P61169); assay: Tested in vivo for induction of catalepsy against D2 receptor in rats; format: functional, organism-based
Chain of D(2) dopamine receptor (Rattus norvegicus) (P61169 whole entry): as above

Rattus norvegicus [3] = species on record: Rattus norvegicus; assay: Inhibition of quipazine induced head twitches in rats; format: functional
[4] = biological target: D(2) dopamine receptor (Mus musculus) (UniProt P61168); assay: Tested in vivo for methyl phenidate-induced gnawing behavior antagonistic activity against dopamine D2 receptor in mice; format: functional, organism-based
Chain of D(2) dopamine receptor (Mus musculus) (P61168 whole entry): as the sequence (P61169 whole entry) above, with A29P counted along it

Rattus norvegicus [5] = assay: Compound was tested for the inhibition of quipazine-induced head twitches 24 hours after subcutaneous administration; format: functional; conditions: sc
[6] = biological target: T1, Serotonin 2 (5-HT2) receptor; assay: Inhibition of [3H]ketanserin binding to […] 5-hydroxytryptamine 2 receptor; format: protein assay
[7] = biological target: D(2) dopamine receptor (Rattus norvegicus) (UniProt P61169); assay: (§1) Compound was tested in vivo for methyl phenidate-induced gnawing behavior antagonistic activity against dopamine D-2 receptor in mice; format: functional, organism-based
[8] = biological target: D(2) dopamine receptor (Mus musculus) (UniProt P61168); assay: as §1; format: functional, organism-based
[9] = biological target: T2, Serotonin 2 (5-HT2) receptor (Rattus norvegicus) (UniProt P30994+P08909+P14842); assay: Compound was tested for the inhibition of quipazine binding at 5-hydroxytryptamine 2 receptor; format: protein assay
T2 sequence (P08909 whole entry, looked up): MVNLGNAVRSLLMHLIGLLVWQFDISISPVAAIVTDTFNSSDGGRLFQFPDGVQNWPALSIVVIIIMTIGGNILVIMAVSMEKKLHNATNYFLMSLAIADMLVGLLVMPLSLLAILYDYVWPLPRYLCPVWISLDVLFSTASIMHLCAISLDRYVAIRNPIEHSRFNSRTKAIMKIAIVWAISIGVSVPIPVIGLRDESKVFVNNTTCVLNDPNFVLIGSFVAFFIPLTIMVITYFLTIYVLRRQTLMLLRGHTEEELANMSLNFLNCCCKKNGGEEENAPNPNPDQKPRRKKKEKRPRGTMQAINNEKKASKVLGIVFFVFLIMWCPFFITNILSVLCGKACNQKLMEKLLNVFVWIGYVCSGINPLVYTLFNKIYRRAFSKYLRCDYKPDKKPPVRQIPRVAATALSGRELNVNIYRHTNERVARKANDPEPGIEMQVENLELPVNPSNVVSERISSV
T2 sequence (P14842 whole entry, looked up): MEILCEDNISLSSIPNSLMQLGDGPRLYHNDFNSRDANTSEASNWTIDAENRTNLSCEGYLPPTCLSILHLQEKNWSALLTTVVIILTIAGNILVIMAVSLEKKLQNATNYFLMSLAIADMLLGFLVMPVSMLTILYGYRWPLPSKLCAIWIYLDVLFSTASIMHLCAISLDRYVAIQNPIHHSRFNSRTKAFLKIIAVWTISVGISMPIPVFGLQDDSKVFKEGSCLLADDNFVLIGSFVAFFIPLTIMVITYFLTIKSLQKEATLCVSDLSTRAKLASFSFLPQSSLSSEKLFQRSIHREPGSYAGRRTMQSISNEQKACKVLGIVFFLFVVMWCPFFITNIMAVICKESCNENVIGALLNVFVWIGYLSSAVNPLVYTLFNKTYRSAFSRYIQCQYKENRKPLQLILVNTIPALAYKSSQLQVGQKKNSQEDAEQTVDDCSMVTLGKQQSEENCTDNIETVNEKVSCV
T2 sequence (P30994 whole entry, looked up): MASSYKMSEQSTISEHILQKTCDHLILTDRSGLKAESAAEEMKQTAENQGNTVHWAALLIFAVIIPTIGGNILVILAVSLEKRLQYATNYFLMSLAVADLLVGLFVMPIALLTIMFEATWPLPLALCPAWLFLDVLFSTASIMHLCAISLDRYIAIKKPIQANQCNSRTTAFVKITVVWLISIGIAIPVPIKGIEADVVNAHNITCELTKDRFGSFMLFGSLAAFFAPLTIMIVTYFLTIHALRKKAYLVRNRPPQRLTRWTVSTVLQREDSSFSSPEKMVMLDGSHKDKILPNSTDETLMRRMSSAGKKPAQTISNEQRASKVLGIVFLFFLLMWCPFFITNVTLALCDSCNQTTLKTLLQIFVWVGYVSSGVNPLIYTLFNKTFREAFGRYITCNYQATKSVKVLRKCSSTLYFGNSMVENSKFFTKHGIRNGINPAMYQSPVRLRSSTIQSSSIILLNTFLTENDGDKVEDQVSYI

[10] = biological target: D(2) dopamine receptor (Rattus norvegicus) (UniProt P61169); assay: Compound was tested in vivo for induction of catalepsy against D-2 receptor in rats; format: organism-based
[11] = biological target: T2, Serotonin 2 (5-HT2) receptor (Rattus norvegicus); assay: Compound was tested for the inhibition of quipazine binding at 5-HT2 receptor; format: protein assay

| SMILES | IC50 [1] | IC50 (D(2) dopamine receptor) | ED50 [2] | ED50 (Rattus norvegicus [3]) | ED50 [4] | also measured |
| --- | --- | --- | --- | --- | --- | --- |
| O=C1NCCN1CCN1CCC(c2cn(-c3ccc(F)cc3)c3ccccc23)CC1 | 0.082 nM | 18 nM | > 98 µmol/kg | 0.036 µmol/kg | > 98 µmol/kg | ED50 (Rattus norvegicus [5]): 0.082 µmol/kg |
| O=C1NCCN1CCN1CCC(c2cn(-c3ccc(F)cc3)c3ccc(Cl)cc23)CC1 [SERTINDOLE] |  |  | > 91 µmol/kg | 0.052 µmol/kg | > 180 µmol/kg | ED50 (Rattus norvegicus [5]): 0.03 µmol/kg |
| O=C1NCCN1CCN1CC=C(c2cn(-c3ccc(F)cc3)c3ccc(Cl)cc23)CC1 |  | 2.3 nM | 2.2 µmol/kg | 0.22 µmol/kg | 2 µmol/kg | ED50 (Rattus norvegicus [5]): 1.2 µmol/kg |
| O=C1NCCN1CCN1CCN(c2cn(-c3ccc(F)cc3)c3ccc(Cl)cc23)CC1 |  | 21 nM | 4.5 µmol/kg | 0.015 µmol/kg | 7.8 µmol/kg | IC50 [6]: 4.4 nM |
| OCCN1CCC(c2cn(-c3ccc(F)cc3)c3ccc(Cl)cc23)CC1 | 2.7 nM | 4.5 nM | 3.8 µmol/kg | 0.034 µmol/kg | 1.5 µmol/kg |  |
| O=C1NCCN1CCCN1CCC(c2cn(-c3ccc(F)cc3)c3ccc(Cl)cc23)CC1 | 1 nM | 3.4 nM | 11 µmol/kg | 1.8 µmol/kg | 57 µmol/kg |  |
| Fc1ccc(-n2cc(C3=CCNCC3)c3cc(C(F)(F)F)ccc32)cc1 |  |  | > 14 µmol/kg | > 0.86 µmol/kg | 2.1 µmol/kg |  |
| CN1CC=C(c2cn(-c3ccc(F)cc3)c3ccc(F)cc23)CC1 |  |  | 0.64 µmol/kg | 0.15 µmol/kg | 0.44 µmol/kg | IC50 [6]: 3 nM |
| CN1CCN(CCN2CCC(c3cn(-c4ccc(F)cc4)c4ccc(Cl)cc34)CC2)C1=O | 0.24 nM | 6.5 nM | 31 µmol/kg | 0.021 µmol/kg | 2.6 µmol/kg |  |
| OCCN1CCN(c2cn(-c3ccc(F)cc3)c3ccc(C(F)(F)F)cc23)CC1 |  |  | 0.06 µmol/kg | 0.023 µmol/kg | 0.079 µmol/kg | IC50 [6]: 1.4 nM |
| COc1ccc2c(c1)c(C1CCN(CCN3CCNC3=O)CC1)cn2-c1ccc(F)cc1 | 1 nM | 24 nM | > 46 µmol/kg | 0.77 µmol/kg | > 76 µmol/kg |  |
| O=C1NCCN1CCN1CCC(c2cn(-c3ccc(F)cc3)c3ccc(Br)cc23)CC1 | 1.3 nM | 3.8 nM | > 41 µmol/kg | 0.032 µmol/kg | > 82 µmol/kg |  |
| Fc1ccc(-n2cc(C3=CCNCC3)c3cc(Cl)ccc32)cc1 |  |  | > 61 µmol/kg | 1.5 µmol/kg |  | ED50 [7]: 17 µmol/kg |
| OCCN1CCN([C@@H]2C[C@@H](c3ccc(F)cc3)c3ccc(C(F)(F)F)cc32)CC1 (racemic) [TEFLUDAZINE] | 2.8 nM |  | 0.12 µmol/kg | 0.029 µmol/kg | 0.2 µmol/kg |  |
| CN1CCN(c2cn(-c3ccc(F)cc3)c3ccc(Cl)cc23)CC1 |  | 1 nM | 0.23 µmol/kg | 0.041 µmol/kg | 0.12 µmol/kg | IC50 [6]: 0.3 nM |
| O=C1NCCN1CCCCCCN1CCC(c2cn(-c3ccc(F)cc3)c3ccc(Cl)cc23)CC1 |  | 2.2 nM | 20 µmol/kg | > 2.2 µmol/kg | 2.7 µmol/kg | IC50 [6]: 2.5 nM |
| Fc1ccc(-n2cc(C3CCNCC3)c3cc(Cl)ccc32)cc1 | 3.8 nM | 23 nM |  | 1.5 µmol/kg |  | ED50 [8]: > 90 µmol/kg |
| CN1CC=C(c2cn(-c3ccc(F)cc3)c3ccccc23)CC1 |  | 1.6 nM | 3.6 µmol/kg | 0.15 µmol/kg | 1.3 µmol/kg |  |

| SMILES | IC50 [1] | IC50 (D(2) dopamine receptor) | ED50 [2] | ED50 (Rattus norvegicus [3]) | ED50 [4] | also measured |
| --- | --- | --- | --- | --- | --- | --- |
| CC(C)N1CCN(CCN2CCC(c3cn(-c4ccc(F)cc4)c4ccc(Cl)cc34)CC2)C1=O | 2.1 nM | 12 nM | > 69 µmol/kg | 0.046 µmol/kg | > 69 µmol/kg |  |
| O=C1NCCN1CCN1CCC(c2cn(-c3ccc(F)cc3)c3ccc(C(F)(F)F)cc23)CC1 | 1 nM | 1.9 nM | 45 µmol/kg | 0.11 µmol/kg | 22 µmol/kg |  |
| O=C1NCCN1CCN1CC=C(c2cn(-c3ccc(F)cc3)c3ccc(C(F)(F)F)cc23)CC1 |  |  | 0.49 µmol/kg | > 0.66 µmol/kg | 0.37 µmol/kg | ED50 [9]: 0.14 µmol/kg |
| O=C1NCCN1CCN1CCC(c2c[nH]c3ccc(Cl)cc23)CC1 | 25 nM | 810 nM |  | > 14 µmol/kg |  | ED50 [10]: 47 µmol/kg |
| Cc1nc2n(c(=O)c1CCN1CCC(c3noc4cc(F)ccc34)CC1)CCCC2 [RISPERIDONE] |  |  |  |  |  | ED50 (Rattus norvegicus [5]): > 3 µmol/kg |
| N#Cc1ccc2c(c1)c(C1=CCN(CCN3CCNC3=O)CC1)cn2-c1ccc(F)cc1 | 3.2 nM | 2.1 nM |  |  |  | ED50 [10]: 0.37 µmol/kg |
| N#Cc1ccc2c(c1)c(C1CCN(CCN3CCNC3=O)CC1)cn2-c1ccc(F)cc1 | 1.3 nM | 2.2 nM |  |  | 34 µmol/kg |  |
| O=C1NCCN1CCCCCN1CCC(c2cn(-c3ccc(F)cc3)c3ccc(Cl)cc23)CC1 | 1.5 nM | 4.2 nM |  | 1.5 µmol/kg | 14 µmol/kg |  |
| O=C1NCCN1CCN1CCC(c2cn(-c3ccc(F)cc3)c3ccc(Cl)cc23)(c2cn(-c3ccc(F)cc3)c3ccc(Cl)cc23)CC1 |  |  |  |  |  | IC50 [6]: 120 nM |
| O=C1NCCN1CCN1CCC(c2cn(-c3ccc(F)cc3)c3ccc(F)cc23)CC1 | 0.48 nM | 4.7 nM | > 78 µmol/kg | 0.052 µmol/kg | > 78 µmol/kg | ED50 (Rattus norvegicus [5]): 0.0097 µmol/kg |
| CN1CCN(C2=Nc3cc(Cl)ccc3Nc3ccccc32)CC1 [CLOZAPINE] |  |  |  |  |  | ED50 (Rattus norvegicus [5]): > 31 µmol/kg |
| CN1CC=C(c2cn(-c3ccc(F)cc3)c3ccc(Cl)cc23)CC1 |  | 1.1 nM | 0.085 µmol/kg | 0.058 µmol/kg | 0.085 µmol/kg | ED50 (Rattus norvegicus [5]): > 0.19 µmol/kg; IC50 [6]: 0.53 nM |
| O=C1NCCN1CCCCN1CCC(c2cn(-c3ccc(F)cc3)c3ccc(Cl)cc23)CC1 | 59 nM | 78 nM |  | > 2.2 µmol/kg | > 72 µmol/kg |  |
| Cc1ccc2c(c1)c(C1CCN(CCN3CCNC3=O)CC1)cn2-c1ccc(F)cc1 | 0.3 nM | 3.7 nM | > 91 µmol/kg | 0.0083 µmol/kg | 98 µmol/kg |  |
| CS(=O)(=O)c1ccc2c(c1)c(C1CCN(CCN3CCNC3=O)CC1)cn2-c1ccc(F)cc1 | 8 nM | 5.8 nM | > 17 µmol/kg | 54 µmol/kg | > 67 µmol/kg |  |
| O=C1N(CCN2CCC(c3cn(-c4ccc(F)cc4)c4ccc(Cl)cc34)CC2)CCN1C1CCCC1 |  |  |  |  |  | ED50 [8]: > 67 µmol/kg; ED50 [11]: > 2.1 µmol/kg |
| CN1CC=C(c2cn(-c3ccc(F)cc3)c3ccc([N+](=O)[O-])cc23)CC1 |  | 0.76 nM | 0.025 µmol/kg | 0.0091 µmol/kg | 0.022 µmol/kg | IC50 [6]: 1.9 nM |
| O=C1N(CCN2CCC(c3cn(-c4ccc(F)cc4)c4ccc(Cl)cc34)CC2)CCN1c1ccccc1 | 4.4 nM | 92 nM |  | > 0.15 µmol/kg |  | ED50 [8]: > 77 µmol/kg |
